Assay [1] has as its target T1, human LXRα (Homo sapiens, UniProt Q13133).
T1 construct: made in house; host or cells: E. coli
T1 sequence (Q13133 1-447): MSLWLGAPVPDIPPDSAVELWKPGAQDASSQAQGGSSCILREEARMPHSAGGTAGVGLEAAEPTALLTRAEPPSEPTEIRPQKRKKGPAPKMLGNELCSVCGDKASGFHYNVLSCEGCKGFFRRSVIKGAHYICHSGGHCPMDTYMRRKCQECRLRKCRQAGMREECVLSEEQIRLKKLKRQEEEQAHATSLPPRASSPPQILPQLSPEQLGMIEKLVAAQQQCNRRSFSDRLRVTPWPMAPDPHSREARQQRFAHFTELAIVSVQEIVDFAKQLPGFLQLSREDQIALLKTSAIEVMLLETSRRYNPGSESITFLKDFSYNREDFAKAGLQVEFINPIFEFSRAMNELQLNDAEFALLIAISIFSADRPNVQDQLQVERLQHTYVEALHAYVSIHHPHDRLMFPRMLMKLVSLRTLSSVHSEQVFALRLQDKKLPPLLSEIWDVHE
Put plainly: Ligand-binding test procedure for human LXRα. Conditions: competition with 3H T0901317, biotinylated hLXRα; read-out: hLXRa binding IC50. How it is done:
II. Ligand-Binding Test Procedure for Human LXRα.
(§1) Buffer: 100 mM KCl, 100 mM TRIS (pH 7.4 at +4° C.), 8.6% glycerol, 0.1 mM PMSF*, 2 mM MTG*, 0.2% CHAPS (* not used in wash buffer)
Receptor source: E. coli extract from cells expressing biotinylated hLXRα. Extract was made in a similar buffer as above, but with 50 mM TRIS.
(§2) Washed streptavidin and coated flash plates with wash buffer. Diluted receptor extract to give Bmax˜4000 cpm and add to the wells. Wrapped the plates in aluminum foil and stored them at +4° C. over night.
Made a dilution series in DMSO of the test ligands. Made a 5 nM solution of the radioactive tracer in buffer. Mixed […] diluted tracer with 5 μl of the test ligand from each concentration of the dilution series. Washed the receptor-coated flash plates. Added 200 μl per well of the ligand/radiolabel mixture to the receptor-coated flash plates. Wrapped the plates in aluminum foil and incubate at +4° C. over night.
(§3) Aspirated wells, and wash the flashed plates. Sealed the plate. Measured the remaining radioactivity in the plate.

Assay [2] has as its target T2, human LXRβ (Homo sapiens, UniProt P55055).
T2 construct: made in house; host or cells: E. coli
T2 sequence (P55055 1-460): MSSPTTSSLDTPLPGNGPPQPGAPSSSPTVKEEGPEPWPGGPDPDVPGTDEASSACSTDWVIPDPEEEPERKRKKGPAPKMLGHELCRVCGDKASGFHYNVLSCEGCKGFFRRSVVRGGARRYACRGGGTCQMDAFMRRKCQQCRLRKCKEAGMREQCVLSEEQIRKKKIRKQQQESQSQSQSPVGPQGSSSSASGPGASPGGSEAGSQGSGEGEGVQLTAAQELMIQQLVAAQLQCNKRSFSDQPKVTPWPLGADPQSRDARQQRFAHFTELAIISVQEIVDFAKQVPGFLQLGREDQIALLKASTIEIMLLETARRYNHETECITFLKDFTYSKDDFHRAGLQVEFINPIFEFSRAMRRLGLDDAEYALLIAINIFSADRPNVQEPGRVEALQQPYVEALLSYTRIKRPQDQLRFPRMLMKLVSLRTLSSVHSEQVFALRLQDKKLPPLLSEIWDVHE
In words: Ligand-binding test procedure for human LXRβ. Conditions: competition with 3H T0901317, biotinylated hLXRβ; read-out: hLXRb binding IC50. How it is done: I. Ligand-Binding Test Procedure for Human LXRβ.
as §1
Receptor source: E. coli extract from cells expressing biotinylated hLXRβ. Extract was made in a similar buffer as above, but with 50 mM TRIS.
as §2
Made a dilution series in DMSO of the test ligands. Made a 5 nM solution of the radioactive tracer in buffer. Mixed 250 μl diluted tracer with 5 μl of the test ligand from each concentration of the dilution series. Washed the receptor-coated flash plates. Added 200 μl per well of the ligand/radiolabel mixture to the receptor-coated flash plates. Wrapped the plates in aluminum foil and incubate at +4° C. over night.
as §3

Assay [3] concerns ABCA1 gene. In words: Quantitative analysis of ABCA1 gene regulation in THP-1 cells. It is filed as cell-based. Conditions: Gene regulation by LXR (human), differentiated THP-1 cells; for EC50: 18 hrs, ABCA1 mRNA by real-time PCR; for Agonism ABCA1: LXR agonist reference at 1.0 uM as positive control. The method, then: III. Quantitative Analysis of ABCA1 Gene Regulation in THP-1 Cells.
The compounds of formula (I) effect on the regulation of the ABCA1 gene was evaluated using the following procedure.
Cell culture: The THP-1 monocytic cell line (ATCC # TIB-202) was obtained from American Type Culture Collection (Manassas, Va.) and cultured in RPMI 1640 medium (Gibco, Carlsbad, Calif.) containing 10% FBS, 2 mM L-glutamine, and 55 uM beta-Mercaptoethanol (BME). Cells were plated in 96-well format at a density of 7.5×10^4 in complete medium containing 50-100 ng/ml phorbal 12,13-dibutyrate (Sigma, St. Louis, Mo.) for three days to induce differentiation into adherent macrophages. Differentiated THP-1 cells were treated with test compounds or ligands dissolved in DMSO (Sigma, D-8779) in culture medium lacking phorbal ester. […] Dose response effects were measured in duplicate, in the range of 0.001 to 30 micromolar concentrations and treated cells were incubated for an additional 18 hrs prior to RNA isolation. Unstimulated cells treated with vehicle were included as negative controls on each plate. An LXR agonist reference, N-(2,2,2-trifluoro-ethyl)-N-[4-(2,2,2-trifluoro-1-hydroxy-1-trifluoromethyl-ethyl)-phenyl]-benzenesulfonamide (Schultz, Joshua R., Genes & Development (2000), 14(22), 2831-2838), was dosed at 1.0 uM and served as a positive control. In antagonist mode, the compound under study is analyzed in the presence of 150 nM GW3965, trifluoromethyl-benzyl)-(2,2-diphenyl-ethyl)-amino]-propoxy]-phenyl)-acetic acid (Collins, J. L., J. Med. Chem. (2000), 45:1963-1966.). Results of antagonist analysis are expressed as % antagonism and IC50 (in μM). RNA isolation and quantitation: Total cellular RNA was isolated from treated cells cultured in 96-well plates using PrepStation 6100 (Applied Biosystems, Foster City, Calif.), according to the manufacturer's recommendations. RNA was resuspended in ribonuclease-free water and stored at −70° C. prior to analysis. RNA concentrations were quantitated with RiboGreen test procedure, #R-11490 (Molecular Probes, Eugene, Oreg.). Gene expression analysis: Gene-specific mRNA quantitation was performed by real-time PCR with the Perkin Elmer Corp. chemistry on an ABI Prism 7700 Sequence detection system (Applied Biosystems, Foster City, Calif.) according to the manufacturer's instructions. Samples (50-100 ng) of total RNA were assayed in duplicate or triplicate in 50 ul reactions using one-step RT-PCR and the standard curve method to estimate specific mRNA concentrations. Sequences of gene-specific primer and probe sets were designed with Primer Express Software (Applied Biosystems, Foster City, Calif.). The human ABCA1 primer and probe sequences are: forward, […], reverse, […], and probe, 6FAM-[…]-TAMRA. RT and PCR reactions were performed according to PE Applied Biosystem's protocol for Taqman Gold RT-PCR or Qiagen's protocl for Quantitect probe RT-PCR. Relative levels of ABCA1 mRNA are normalized using GAPDH mRNA or 18S rRNA probe/primer sets purchased commercially (Applied Biosystems, Foster City, Calif.).
Mean, standard deviation and statistical significance of duplicate evaluations of RNA samples were assessed using ANOVA, one-way analysis of variance using SAS analysis.
Background: Quantitative PCR measures a nucleic acid by following its amplification.

This note sets out measurements from patent US20100324073A1, “Pyrazolo [1,5-A] Pyrimidine Compounds” (Wyeth LLC, priority 2007, published 2010).

As to `CS(=O)(=O)c1cccc(Oc2cccc(-c3c(Cc4ccccc4)nn4c(C(F)(F)F)ccnc34)c2)c1` [Example 5, 2-benzyl-3-{3-[3-(methylsulfonyl)phenoxy]phenyl}-7-(trifluoromethyl)pyrazolo[1,5-a]pyrimidine], the IC50 (commonly the concentration needed to halve the response being measured) in assay [1] stood at 61.6 nM. Besides, the IC50 in assay [2] turned out to be 2.4 nM. For the same molecule, in assay [3], the EC50 (usually the concentration at which the effect is half-maximal) is 115 nM and the “Agonism ABCA1” value amounted to 98%.

Take `CCS(=O)(=O)c1cccc(Oc2cccc(-c3c(Cc4ccccc4)nn4c(C(F)(F)F)ccnc34)c2)c1` [Example 6, 2-benzyl-3-(3-(3-(ethylsulfonyl)phenoxy)phenyl)-7-(trifluoromethyl)pyrazolo[1,5-a]pyrimidine]: the 50% inhibitory concentration (IC50) in assay [1] turned out to be 98.2 nM; in assay [2], 5.3 nM. Also, the midpoint of the response in assay [3], the EC50, lay at 275 nM. Also, in assay [3], the “Agonism ABCA1” value was 101%.

Consider `O=S(=O)(CCCO)c1cccc(Oc2cccc(-c3c(Cc4ccccc4)nn4c(C(F)(F)F)ccnc34)c2)c1` [Example 7, 3-(3-(3-(2-benzyl-7-(trifluoromethyl)pyrazolo[1,5-a]pyrimidin-3-yl)phenoxy)phenylsulfonyl)propan-1-ol], for which, in assay [1], the IC50 amounted to 87.2 nM. Further, the IC50 in assay [2] stood at 3.4 nM. For the same molecule, in assay [3], the EC50 amounted to 724 nM and the “Agonism ABCA1” value turned out to be 109%.
